Assay results as given in ChEMBL document CHEMBL1201862, “PubChem BioAssay data set” (2004).
One block for each compound: values may come before it. Calls of active or inactive are those of the source.

What was measured:
[1] = HPDE-C7 pancreatic duct cell viability loss – fluorescence, HTS (AID 430); format: functional, cell-based; conditions: Homo sapiens
[2] = Trypanosoma cruzi growth suppression in host cells – NIH3T3 host cells, beta-gal luminescence, confirmation (AID 2044); format: functional, cell-based;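 note: intracellular parasites grown in NIH/3T3 mouse fibroblasts as host cells; luminescent beta-galactosidase reporter signal from transgenic T. cruzi replicating inside host cells; inhibitors lower the luminescence signal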
[3] = viability loss of HPDE-C7K cells – cell-based, fluorescence, HTS, primary screen (AID 431); format: functional; conditions: Homo sapiens
[4] = NIH3T3 cell viability loss – ATP luminescence, mouse fibroblasts, counter-screen, dose response (AID 2010); format: functional, cell-based; conditions: NIH3T3;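 note: cells exposed to compound for about 90 hours before reading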
[5] = target: T1, Mannose-6-phosphate isomerase (Homo sapiens, UniProt P34949); experiment: MPI enzyme activity inhibition – biochemical, fluorescence intensity, coupled assay, primary screen (AID 1209)
T1 sequence (P34949 whole entry): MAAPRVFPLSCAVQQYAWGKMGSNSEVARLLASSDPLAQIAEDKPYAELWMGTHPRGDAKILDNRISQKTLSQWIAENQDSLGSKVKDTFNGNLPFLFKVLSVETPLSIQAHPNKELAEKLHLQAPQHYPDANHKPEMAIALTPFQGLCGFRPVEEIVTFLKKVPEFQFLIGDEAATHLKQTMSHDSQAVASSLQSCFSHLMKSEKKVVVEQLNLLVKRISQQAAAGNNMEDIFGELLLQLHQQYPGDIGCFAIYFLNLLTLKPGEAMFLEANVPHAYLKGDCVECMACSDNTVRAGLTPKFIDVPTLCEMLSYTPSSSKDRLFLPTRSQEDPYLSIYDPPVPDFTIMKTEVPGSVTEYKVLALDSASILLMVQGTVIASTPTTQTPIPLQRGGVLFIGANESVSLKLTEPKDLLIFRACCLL

NADPH oxidase 1 = target: T2, NADPH oxidase 1 (Homo sapiens, UniProt Q9Y5S8); format: functional, cell-based;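 note: Cell-based assay with luminescence read-out, IC50 derived from inhibitor dose-response curves; intracellular ROS from endogenous NOX1 in intact HT29 colon cancer cells; potency of inhibitors that lower the ROS luminescence signal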
T2 sequence (Q9Y5S8 whole entry): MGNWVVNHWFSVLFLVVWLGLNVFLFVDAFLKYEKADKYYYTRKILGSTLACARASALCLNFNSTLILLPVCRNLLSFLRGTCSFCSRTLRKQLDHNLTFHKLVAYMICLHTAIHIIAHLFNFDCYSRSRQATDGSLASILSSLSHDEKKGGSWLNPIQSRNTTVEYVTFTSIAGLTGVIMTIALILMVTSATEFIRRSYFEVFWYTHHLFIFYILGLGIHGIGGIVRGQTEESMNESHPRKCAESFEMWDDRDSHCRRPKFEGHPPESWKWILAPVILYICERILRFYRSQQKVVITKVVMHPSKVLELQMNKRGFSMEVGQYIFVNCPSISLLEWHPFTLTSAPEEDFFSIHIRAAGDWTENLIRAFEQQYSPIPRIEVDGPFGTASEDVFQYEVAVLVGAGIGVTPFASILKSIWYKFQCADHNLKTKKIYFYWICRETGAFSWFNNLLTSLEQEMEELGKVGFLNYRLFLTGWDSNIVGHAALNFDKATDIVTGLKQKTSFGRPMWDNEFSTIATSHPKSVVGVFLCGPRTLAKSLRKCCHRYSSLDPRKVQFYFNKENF

[6] = target: Peroxisome proliferator-activated receptor gamma/Nuclear receptor coactivator 2 (Homo sapiens, UniProt P37231); format: functional;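 note: agonist potency for raising coactivator recruitment to the receptor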
[7] = target: Peroxisome proliferator-activated receptor gamma/Nuclear receptor coactivator 1 (Homo sapiens, UniProt P37231); format: functional;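 note: agonist potency as compounds enhance coactivator SRC-1 recruitment to PPARgamma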
[8] = target: Peroxisome proliferator-activated receptor gamma/Nuclear receptor coactivator 3 (Homo sapiens, UniProt P37231); format: functional;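 note: agonist potency for raising coactivator recruitment to the receptor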
Peroxisome proliferator-activated receptor gamma/Nuclear receptor coactivator 3, sequence (P37231 whole entry): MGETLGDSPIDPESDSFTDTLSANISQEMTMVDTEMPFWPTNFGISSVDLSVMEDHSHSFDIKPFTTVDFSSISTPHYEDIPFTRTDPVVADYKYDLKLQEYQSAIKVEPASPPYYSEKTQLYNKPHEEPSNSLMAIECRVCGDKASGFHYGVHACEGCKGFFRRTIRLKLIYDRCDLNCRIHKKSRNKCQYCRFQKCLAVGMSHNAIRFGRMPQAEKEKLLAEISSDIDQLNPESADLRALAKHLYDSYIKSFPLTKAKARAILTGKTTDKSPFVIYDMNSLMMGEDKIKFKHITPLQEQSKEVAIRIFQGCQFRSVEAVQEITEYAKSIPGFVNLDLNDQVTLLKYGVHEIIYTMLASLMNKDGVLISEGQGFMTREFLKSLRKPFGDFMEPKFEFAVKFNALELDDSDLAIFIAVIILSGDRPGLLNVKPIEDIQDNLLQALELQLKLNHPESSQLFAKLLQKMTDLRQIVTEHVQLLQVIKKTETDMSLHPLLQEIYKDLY
Peroxisome proliferator-activated receptor gamma/Nuclear receptor coactivator 3, sequence (Q9Y6Q9 whole entry, further chain): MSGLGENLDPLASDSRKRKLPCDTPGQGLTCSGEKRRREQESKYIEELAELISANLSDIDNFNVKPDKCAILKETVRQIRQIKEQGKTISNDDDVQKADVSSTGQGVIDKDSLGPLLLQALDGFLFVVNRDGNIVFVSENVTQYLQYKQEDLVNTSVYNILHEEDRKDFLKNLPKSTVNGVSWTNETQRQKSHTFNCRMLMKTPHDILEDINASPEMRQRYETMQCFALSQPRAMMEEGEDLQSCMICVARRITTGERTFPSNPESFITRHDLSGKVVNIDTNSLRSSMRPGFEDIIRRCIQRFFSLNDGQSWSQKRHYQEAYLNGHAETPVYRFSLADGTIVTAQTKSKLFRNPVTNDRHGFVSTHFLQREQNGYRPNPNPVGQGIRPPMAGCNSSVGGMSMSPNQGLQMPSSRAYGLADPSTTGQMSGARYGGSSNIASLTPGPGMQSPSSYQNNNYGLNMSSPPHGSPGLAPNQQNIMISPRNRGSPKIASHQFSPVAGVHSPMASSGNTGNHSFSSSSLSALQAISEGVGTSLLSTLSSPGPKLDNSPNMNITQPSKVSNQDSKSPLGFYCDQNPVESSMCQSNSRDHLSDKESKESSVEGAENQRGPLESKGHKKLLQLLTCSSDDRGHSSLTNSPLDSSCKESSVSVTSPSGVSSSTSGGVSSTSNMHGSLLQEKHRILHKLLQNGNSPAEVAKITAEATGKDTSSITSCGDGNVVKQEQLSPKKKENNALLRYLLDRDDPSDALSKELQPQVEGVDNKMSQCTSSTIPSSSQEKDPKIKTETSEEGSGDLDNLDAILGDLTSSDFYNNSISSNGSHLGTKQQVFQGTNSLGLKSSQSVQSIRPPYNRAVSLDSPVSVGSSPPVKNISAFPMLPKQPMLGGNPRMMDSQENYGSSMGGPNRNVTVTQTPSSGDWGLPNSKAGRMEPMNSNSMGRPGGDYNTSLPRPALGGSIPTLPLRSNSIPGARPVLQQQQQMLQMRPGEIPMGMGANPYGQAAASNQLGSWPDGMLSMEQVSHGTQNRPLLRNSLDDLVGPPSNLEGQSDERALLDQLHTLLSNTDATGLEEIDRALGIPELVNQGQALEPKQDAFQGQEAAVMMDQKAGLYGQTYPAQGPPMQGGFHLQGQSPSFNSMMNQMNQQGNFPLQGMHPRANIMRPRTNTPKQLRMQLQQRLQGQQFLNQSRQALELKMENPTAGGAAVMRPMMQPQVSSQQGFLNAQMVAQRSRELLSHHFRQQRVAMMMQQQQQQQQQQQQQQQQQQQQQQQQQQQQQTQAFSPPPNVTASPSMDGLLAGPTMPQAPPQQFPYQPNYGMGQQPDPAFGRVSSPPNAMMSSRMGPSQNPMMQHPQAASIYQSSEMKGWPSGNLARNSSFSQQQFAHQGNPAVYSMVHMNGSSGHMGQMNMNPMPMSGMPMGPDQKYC

Peroxisome proliferator-activated receptor gamma/Nuclear receptor coactivator 2, sequence (P37231 whole entry): as the sequence (P37231 whole entry) above
Peroxisome proliferator-activated receptor gamma/Nuclear receptor coactivator 2, sequence (Q15596 whole entry, further chain): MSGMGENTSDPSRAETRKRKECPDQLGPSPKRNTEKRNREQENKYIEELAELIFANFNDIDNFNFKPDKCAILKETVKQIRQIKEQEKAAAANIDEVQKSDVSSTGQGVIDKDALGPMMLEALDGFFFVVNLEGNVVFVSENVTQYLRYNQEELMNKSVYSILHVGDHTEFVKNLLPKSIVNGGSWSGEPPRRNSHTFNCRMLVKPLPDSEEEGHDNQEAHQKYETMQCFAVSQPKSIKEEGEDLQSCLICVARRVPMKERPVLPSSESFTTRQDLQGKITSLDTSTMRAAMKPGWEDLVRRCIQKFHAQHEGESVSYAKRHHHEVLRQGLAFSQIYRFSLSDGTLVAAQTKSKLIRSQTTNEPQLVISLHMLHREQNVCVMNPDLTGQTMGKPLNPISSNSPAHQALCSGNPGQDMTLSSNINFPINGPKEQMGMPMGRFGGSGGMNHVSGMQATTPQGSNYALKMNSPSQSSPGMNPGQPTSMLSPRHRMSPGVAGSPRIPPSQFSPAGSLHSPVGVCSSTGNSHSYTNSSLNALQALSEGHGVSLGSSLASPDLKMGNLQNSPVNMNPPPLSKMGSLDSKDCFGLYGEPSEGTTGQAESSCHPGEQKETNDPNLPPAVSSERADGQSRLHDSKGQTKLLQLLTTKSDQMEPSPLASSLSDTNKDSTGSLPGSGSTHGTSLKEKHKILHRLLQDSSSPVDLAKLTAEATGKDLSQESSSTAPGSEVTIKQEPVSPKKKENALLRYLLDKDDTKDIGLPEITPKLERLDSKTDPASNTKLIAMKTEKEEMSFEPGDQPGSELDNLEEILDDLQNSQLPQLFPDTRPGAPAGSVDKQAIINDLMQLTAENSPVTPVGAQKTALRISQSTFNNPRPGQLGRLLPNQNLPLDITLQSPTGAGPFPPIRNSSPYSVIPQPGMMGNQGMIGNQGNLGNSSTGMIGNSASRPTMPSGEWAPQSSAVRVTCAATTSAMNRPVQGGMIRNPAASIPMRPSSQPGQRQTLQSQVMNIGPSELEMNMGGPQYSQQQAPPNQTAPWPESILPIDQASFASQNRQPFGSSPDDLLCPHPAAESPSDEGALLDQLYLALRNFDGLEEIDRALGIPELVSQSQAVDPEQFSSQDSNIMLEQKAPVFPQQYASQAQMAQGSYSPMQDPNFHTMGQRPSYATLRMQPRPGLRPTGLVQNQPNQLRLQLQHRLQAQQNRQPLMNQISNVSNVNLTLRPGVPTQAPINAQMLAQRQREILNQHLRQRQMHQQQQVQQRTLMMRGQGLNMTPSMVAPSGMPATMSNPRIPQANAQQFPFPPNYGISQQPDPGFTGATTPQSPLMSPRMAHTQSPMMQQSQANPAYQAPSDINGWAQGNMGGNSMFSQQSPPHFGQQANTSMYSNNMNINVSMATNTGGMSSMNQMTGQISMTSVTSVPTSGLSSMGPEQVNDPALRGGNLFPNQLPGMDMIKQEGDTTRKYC

SMILES: Cc1cc2oc(=O)cc(CN3CCN(C/C=C/c4ccccc4)CC3)c2cc1O
EC50 [1]: > 20 µM (not active)
EC50 [2]: 0.102 µM (active)
EC50 [3]: > 20 µM (not active)
EC50 [4]: > 60 µM (not active)

SMILES: CCOC(=O)N1CCN(S(=O)(=O)c2ccc(C(=O)N(CCCN(C)C)c3nc4cc(OC)ccc4s3)cc2)CC1
EC50 [2]: < 0.1 µM (active)
EC50 [4]: > 30 µM (not active)
EC50 (cells): 0.03 µM (active)

SMILES: Fc1ccc(-c2nc(-c3ccccc3)c(-c3ccccc3)[nH]2)cc1
IC50 (NADPH oxidase 1): > 17 µM (not active)

The remaining lines, values ahead:

IC50 [5]: > 50 µM (not active)
SMILES: CN(O)/C=N/C(=S)Nc1ccc(Cl)cc1Cl

EC50 [6]: > 79.4 µM (not active)
EC50 [7]: > 79.4 µM (not active)
EC50 [8]: > 79.4 µM (not active)
SMILES: Cc1occc1C(=O)N/N=C/c1ccc(Br)s1

IC50 (NADPH oxidase 1): > 17 µM (not active)
SMILES: Clc1ccc(-c2nc(-c3ccccc3)c(-c3ccccc3)[nH]2)cc1
